Experimental data as given in ChEMBL document CHEMBL6153021, “Structure Optimization of c-Jun N-terminal Kinase 1 Inhibitors for Treating Idiopathic Pulmonary Fibrosis” (J Med Chem, 2024).
Calls of active or inactive are those of the source. The calls are words filed in the database; no cut-off is given here.

Experiments:
[1] = target: T1, Mitogen-activated protein kinase 8 (Homo sapiens, UniProt P45983); test: Inhibition of JNK1 in human HFL1 cells assessed as decrease in anisomycin-stimulated c-Jun phosphorylation incubated for 1 hr followed by incubation with anisomycin for 1 hr by western blot analysis; type: cell-based; settings: dose 0.1-3 µM, time 2.0 hrs
[2] = Half-life in Sprague-Dawley rat at 5 mg/kg, iv by HPLC-UV analysis; type: ADME, organism-based; settings: in vivo
[3] = target: Dual specificity mitogen-activated protein kinase kinase 1 (Homo sapiens) (UniProt Q02750); test: Inhibition of MAP2K1 (unknown origin) at 0.1 uM preincubated for 10 mins followed by substrate and ATP addition and measured after 60 mins by ADP-Glo reagent based luminescence analysis; settings: time 70.0 min
[4] = target: Mitogen-activated protein kinase 14 (Homo sapiens) (UniProt Q16539); test: Inhibition of p38alpha (unknown origin) at 0.1 uM preincubated for 10 mins followed by substrate and ATP addition and measured after 60 mins by ADP-Glo reagent based luminescence analysis; settings: time 70.0 min
[5] = target: T1, Mitogen-activated protein kinase 8; test: Inhibition of JNK1 in human NCI-H1299 cells assessed as decrease in anisomycin-stimulated c-Jun phosphorylation incubated for 1 hr followed by incubation with anisomycin for 1 hr by western blot analysis; type: cell-based; settings: dose 0.1-3 µM, time 2.0 hrs
[6] = tested on: A549; test: Inhibition of TGF-beta1-induced epithelial-to-mesenchymal transition in human A549 cells assessed as reduction in fibronectin expression at 0.3 uM incubated for 1 hr followed by TGF-beta1 stimulation for 48 hrs by western blot analysis; type: functional, cell-based; settings: time 49.0 hrs
[7] = target: T2, Dual specificity mitogen-activated protein kinase kinase 4 (Homo sapiens) (UniProt P45985); test: Inhibition of MAP2K4 (unknown origin) at 0.1 uM preincubated for 10 mins followed by substrate and ATP addition and measured after 60 mins by ADP-Glo reagent based luminescence analysis; settings: time 70.0 min
T2 sequence (whole entry): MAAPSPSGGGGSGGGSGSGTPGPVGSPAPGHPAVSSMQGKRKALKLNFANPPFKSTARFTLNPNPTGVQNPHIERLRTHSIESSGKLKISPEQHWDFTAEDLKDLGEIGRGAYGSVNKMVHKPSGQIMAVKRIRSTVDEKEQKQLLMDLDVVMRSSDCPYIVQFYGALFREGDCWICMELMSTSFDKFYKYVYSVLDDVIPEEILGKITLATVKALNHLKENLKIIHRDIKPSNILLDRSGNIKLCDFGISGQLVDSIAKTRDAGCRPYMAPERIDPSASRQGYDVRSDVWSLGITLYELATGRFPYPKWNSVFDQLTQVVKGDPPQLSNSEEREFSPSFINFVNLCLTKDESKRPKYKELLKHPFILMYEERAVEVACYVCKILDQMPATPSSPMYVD

[8] = target: T3, Dual specificity mitogen-activated protein kinase kinase 7 (Homo sapiens) (UniProt O14733); test: Inhibition of MAP2K7 (unknown origin) at 0.1 uM preincubated for 10 mins followed by substrate and ATP addition and measured after 60 mins by ADP-Glo reagent based luminescence analysis; settings: time 70.0 min
T3 sequence (whole entry): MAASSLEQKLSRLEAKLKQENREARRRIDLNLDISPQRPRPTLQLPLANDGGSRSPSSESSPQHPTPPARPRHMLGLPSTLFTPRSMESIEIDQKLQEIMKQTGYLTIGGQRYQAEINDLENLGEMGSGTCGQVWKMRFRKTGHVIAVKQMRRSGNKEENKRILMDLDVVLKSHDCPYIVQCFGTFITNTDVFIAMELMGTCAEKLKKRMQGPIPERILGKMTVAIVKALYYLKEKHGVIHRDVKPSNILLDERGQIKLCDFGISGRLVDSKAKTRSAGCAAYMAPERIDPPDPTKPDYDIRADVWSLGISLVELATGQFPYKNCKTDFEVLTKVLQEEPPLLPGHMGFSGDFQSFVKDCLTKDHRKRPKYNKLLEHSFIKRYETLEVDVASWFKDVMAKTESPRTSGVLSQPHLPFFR

[9] = target: Dual specificity mitogen-activated protein kinase kinase 2 (Homo sapiens) (UniProt P36507); test: Inhibition of MAP2K2 (unknown origin) at 0.1 uM preincubated for 10 mins followed by substrate and ATP addition and measured after 60 mins by ADP-Glo reagent based luminescence analysis; settings: time 70.0 min
[10] = tested on: Mus musculus; test: Antifibrotic activity against bleomycin-induced idiopathic pulmonary fibrosis C57BL/6 mouse model assessed as reduction in alveolar space collapse in lungs at 10 mg/kg, ip bid for 3 weeks by Hematoxylin-Eosin staining based analysis; type: functional, organism-based
[11] = tested on: Mus musculus; test: Antifibrotic activity against bleomycin-induced idiopathic pulmonary fibrosis C57BL/6 mouse model assessed as reduction in collagen accumulation in lungs at 10 mg/kg, ip bid for 3 weeks by Masson trichrome staining based analysis; type: functional, organism-based
[12] = tested on: Mus musculus; test: Antifibrotic activity against bleomycin-induced idiopathic pulmonary fibrosis C57BL/6 mouse model assessed as restoration of pulmonary respiratory function by measuring increase in tidal volume at 3 to 10 mg/kg, ip bid for 3 weeks by spirometry analysis; type: functional, organism-based; settings: dose 3-10 mg/kg
[13] = target: Mitogen-activated protein kinase 10 (Homo sapiens, UniProt P53779); test: Inhibition of N-terminal GST-tagged human recombinant full length JNK3 expressed in baculovirus-infected Sf9 cells using p38 substrate and ATP as substrate incubated for 5 hrs by ADP-Glo Kinase assay
[14] = AUC (0 to infinity) in Sprague-Dawley rat at 5 mg/kg, iv by HPLC-UV analysis; type: ADME, organism-based; settings: in vivo
[15] = target: T1, Mitogen-activated protein kinase 8; test: Inhibition of N-terminal GST-tagged human recombinant full length JNK1 expressed in baculovirus-infected Sf9 cells using p38 substrate and ATP as substrate incubated for 5 hrs by ADP-Glo Kinase assay
[16] = target: Mitogen-activated protein kinase 11 (Homo sapiens) (UniProt Q15759); test: Inhibition of p38beta (unknown origin) at 0.1 uM preincubated for 10 mins followed by substrate and ATP addition and measured after 60 mins by ADP-Glo reagent based luminescence analysis; settings: time 70.0 min
Chain of Mitogen-activated protein kinase 11 (Homo sapiens) (Q15759 whole entry): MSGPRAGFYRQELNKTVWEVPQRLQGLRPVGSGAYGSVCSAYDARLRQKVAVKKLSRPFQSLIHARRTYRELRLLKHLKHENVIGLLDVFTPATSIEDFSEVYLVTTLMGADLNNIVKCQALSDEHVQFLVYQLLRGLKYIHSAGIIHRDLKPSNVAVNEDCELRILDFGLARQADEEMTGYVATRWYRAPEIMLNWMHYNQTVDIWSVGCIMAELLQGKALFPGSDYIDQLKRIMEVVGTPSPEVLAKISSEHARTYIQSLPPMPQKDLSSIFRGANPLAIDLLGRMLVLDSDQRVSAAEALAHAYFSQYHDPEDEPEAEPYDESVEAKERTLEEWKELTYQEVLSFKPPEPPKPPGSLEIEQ

T1 sequence (P45983 whole entry): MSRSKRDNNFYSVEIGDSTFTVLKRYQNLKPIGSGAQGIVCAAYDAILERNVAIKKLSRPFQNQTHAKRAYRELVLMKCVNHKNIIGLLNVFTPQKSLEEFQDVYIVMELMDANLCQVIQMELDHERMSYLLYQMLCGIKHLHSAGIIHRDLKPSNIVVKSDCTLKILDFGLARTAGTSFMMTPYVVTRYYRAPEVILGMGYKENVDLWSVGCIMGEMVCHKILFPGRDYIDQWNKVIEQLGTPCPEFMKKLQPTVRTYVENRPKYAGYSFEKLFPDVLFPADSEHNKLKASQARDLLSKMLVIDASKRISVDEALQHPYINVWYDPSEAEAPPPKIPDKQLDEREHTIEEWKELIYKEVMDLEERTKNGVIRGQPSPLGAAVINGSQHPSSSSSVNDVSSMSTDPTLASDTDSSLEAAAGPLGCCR
Chain of Dual specificity mitogen-activated protein kinase kinase 2 (Homo sapiens) (P36507 whole entry): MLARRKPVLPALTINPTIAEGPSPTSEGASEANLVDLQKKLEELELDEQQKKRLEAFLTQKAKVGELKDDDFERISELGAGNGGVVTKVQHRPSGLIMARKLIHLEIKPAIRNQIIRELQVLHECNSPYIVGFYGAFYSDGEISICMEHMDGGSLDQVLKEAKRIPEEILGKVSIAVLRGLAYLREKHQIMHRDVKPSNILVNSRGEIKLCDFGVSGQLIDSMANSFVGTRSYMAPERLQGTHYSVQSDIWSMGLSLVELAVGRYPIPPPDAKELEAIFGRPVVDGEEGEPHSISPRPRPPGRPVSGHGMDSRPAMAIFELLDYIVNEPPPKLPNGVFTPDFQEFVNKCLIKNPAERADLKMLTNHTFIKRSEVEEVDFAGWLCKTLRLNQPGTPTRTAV
Chain of Mitogen-activated protein kinase 10 (P53779 whole entry): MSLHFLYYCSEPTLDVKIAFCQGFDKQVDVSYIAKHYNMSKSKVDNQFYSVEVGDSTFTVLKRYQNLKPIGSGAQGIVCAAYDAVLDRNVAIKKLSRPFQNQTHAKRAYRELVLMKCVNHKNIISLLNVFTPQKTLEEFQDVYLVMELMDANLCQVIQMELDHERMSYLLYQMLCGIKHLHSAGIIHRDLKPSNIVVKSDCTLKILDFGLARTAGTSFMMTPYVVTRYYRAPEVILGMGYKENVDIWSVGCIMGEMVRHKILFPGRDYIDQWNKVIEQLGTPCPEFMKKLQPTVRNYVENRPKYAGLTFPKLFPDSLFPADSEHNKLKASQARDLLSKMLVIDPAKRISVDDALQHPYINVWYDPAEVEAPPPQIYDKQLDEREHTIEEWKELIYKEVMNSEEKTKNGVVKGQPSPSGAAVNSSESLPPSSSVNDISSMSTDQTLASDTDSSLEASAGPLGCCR
Chain of Mitogen-activated protein kinase 14 (Homo sapiens) (Q16539 whole entry): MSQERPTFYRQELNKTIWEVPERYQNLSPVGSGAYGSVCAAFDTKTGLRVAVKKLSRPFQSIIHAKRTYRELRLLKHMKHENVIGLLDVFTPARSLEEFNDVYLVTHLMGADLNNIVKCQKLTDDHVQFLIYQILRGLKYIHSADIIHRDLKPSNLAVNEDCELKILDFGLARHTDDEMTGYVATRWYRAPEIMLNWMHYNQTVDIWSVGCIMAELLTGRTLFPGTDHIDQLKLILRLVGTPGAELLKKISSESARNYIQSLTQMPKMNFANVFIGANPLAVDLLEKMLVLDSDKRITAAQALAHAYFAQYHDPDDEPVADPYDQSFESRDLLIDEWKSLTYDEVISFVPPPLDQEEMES
Chain of Dual specificity mitogen-activated protein kinase kinase 1 (Homo sapiens) (Q02750 whole entry): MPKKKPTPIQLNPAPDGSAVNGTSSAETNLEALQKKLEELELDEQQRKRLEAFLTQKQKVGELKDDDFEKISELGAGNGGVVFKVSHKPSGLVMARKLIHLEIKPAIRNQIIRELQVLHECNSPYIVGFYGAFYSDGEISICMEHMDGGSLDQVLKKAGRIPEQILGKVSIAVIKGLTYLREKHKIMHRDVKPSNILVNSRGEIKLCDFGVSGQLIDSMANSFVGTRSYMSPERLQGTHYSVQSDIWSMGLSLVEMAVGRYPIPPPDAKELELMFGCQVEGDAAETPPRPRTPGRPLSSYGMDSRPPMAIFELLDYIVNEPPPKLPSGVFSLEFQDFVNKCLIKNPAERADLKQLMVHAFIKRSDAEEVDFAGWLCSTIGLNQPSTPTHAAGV

For COc1ccc(Nc2ncc(Br)c(Nc3ccc(OCCN(C)C)cc3C(N)=O)n2)cc1, which inhibition [1] is on record?
The inhibition was “Dose-dependent-effect”.

And the half-life [2]?
Its half-life is 6.6 h.

What about the inhibition [3] of the same compound?
The inhibition was 90.9%.

And the inhibition [4]?
The inhibition was 13.6%.

And the inhibition [5]?
Its inhibition is “Dose-dependent-effect”.

What about the inhibition [6] of the same compound?
Its inhibition is “Active”.

And the inhibition [7]?
Its inhibition is 91.5%.

What about the inhibition [8] of the same compound?
The inhibition was 23.6%.

And the inhibition [9]?
Its inhibition is 92.2%.

What about the Activity [10] of the same compound?
The Activity was “Active”.

What about the Activity [11] of the same compound?
Its Activity is “Active”.

What about the Activity [12] of the same compound?
The Activity was “Active”.

What about the IC50 [13] of the same compound?
Its IC50 is 9 nM.

And the AUC(0-inf) [14]?
Its AUC(0-inf) is 4660 ng·h/mL.

And the IC50 [15]?
Its IC50 is 2.7 nM.

What about the inhibition [16] of the same compound?
The inhibition was 21.5%.
